Columns and labels:
[1] = test system: TiP-induced osteolysis on mouse calvaria; test: TiP-induced osteolysis, mouse calvarial model (µCT); assay type: in vivo
[2] = test system: rats; test: Study 001–2 acute intravenous toxicity in rats; assay type: in vivo, rat; settings: for Necrotic reaction at the site of injection: vehicle group 2: 55%
Procedure: (§1) Toxicology. We performed toxicology studies for SNV that consisted of acute subcutaneous, intravenous and oral toxicity in rats, acute dermal toxicity in rabbits, skin sensitization using adjuvant and patch test in guinea pigs, and single and repeated (for 13 weeks) dose toxicity studies in rats. The latter was a 90-days repeated dose toxicity study, consisting of SNV once a day at three different doses to the penis and vagina of male and female rats, respectively. The compound was tested for the treatment of erectile dysfunction. The active dose (7 µg SNV) was chosen as the lowest dose for the study. The highest dosage group in the repeated dose toxicity study received 3,500 µg ([Gozes et al., 1994]). For study 001 (parts 1 through 3), the 1× dose consisted of 0.5 mg SNV dissolved in 7.1 ml vehicle (3.55 ml 10% Sefsol [glycerin monocaprylate] + 3.55 ml isopropanol) and 100µl/animal were administered; the 1000X dose consisted of 91 mg SNV dissolved in 1.3 ml vehicle (0.65 ml 10% Sefsol +0.65 ml isopropanol) and 100µl/animal were administered. For studies 002 through 004, the indicated doses of SNV (Table 1) were dissolved in 0.25 ml 10% Sefsol +0.25 ml 40% isopropanol (vehicle). The methodology for each of the toxicology studies is detailed in Table 1.

[3] = test system: neuroprotection; settings: ref Ashur-Fabian et al., 1999; cited from earlier work
Description: (§2) VIP derivatives and conjugates were designed to include a lipophilic moiety or a shortened VIP chain ([Gozes and Fridkin, 1992]; [Gozes et al., 1994]; [Gozes et al., 1995]; [Gozes et al., 1996]; [Gozes et al., 1999]). Stearyl-norleucine-VIP (Stearyl-Nle^17VIP, SNV) is a lipophilic compound consisting of a VIP molecule with an N-terminal attachment of stearic acid to increase cell and tissue bioavailability and an exchange of the oxidation-vulnerable methionine at position 17 with the stable norleucine.

[4] = matrix not given, ref Gozes et al., 1994, 1996; cited from earlier work
Description: as §2

[5] = test system: rats; test: Study 004–1 repeated dose toxicity in rats: a 13-weeks study; assay type: in vivo, rat
Procedure: as §1
The study named 004-1, was the most protracted and detailed toxicology study. We carried it out in rats as a repeated dose toxicity study on target external organs, the penis and the vagina. The structure of the study included a detailed pathological evaluation of all body organs.

[6] = test system: Guinea pigs; test: Study 003 skin sensitization: adjuvant and patch test; assay type: in vivo, guinea pig; settings: SNV 7 mg/animal (1000X)
Procedure: as §1

[7] = test system: M-CSF + RANKL treated pre-osteoclasts; test: Osteoclastogenesis assay, direct effect in the absence of inflammation (TRAP staining); assay type: cell-based, mouse; settings: 10^-6 M, no inflammation, TRAP-positive multinucleated osteoclasts after 5 days, n=5, p<0.01
Procedure: Osteoclastogenesis assay. Preosteoclasts, prepared like the BMDMs, were plated in 96-well plates (7,000 cells per well, for TRAP staining, see below) or in 6-well plates (200,000 cells per well, for RNA) in standard medium supplemented with 20 ng/ml M-CSF and 50 ng/ml RANKL (R&D Systems, Minneapolis, MN, United States). After 48 h, the medium was replaced by the conditioned medium of BMDM, supplemented with RANKL and M-CSF. Where indicated, 10^−6 M SNV or VIP were added. […], cells were stained using a TRAP kit (Sigma-Aldrich, St. Louis, MO, United States), and multinucleated (>3 nuclei) TRAP-positive cells were defined as osteoclasts. Images were acquired at an original magnification of ×4 (Evos FLC, Life Technologies, MS, United States). The number of osteoclasts and the total osteoclast area were measured using ImageJ software (National Institutes of Health, Bethesda, MD, United States).
FIGURE 3 Direct effect of VIP and SNV on osteoclastogenesis. (A) VPAC1 and (B) VPAC2 expression in M-CSF treated bone marrow-derived macrophages (Day 0) and M-CSF + RANKL treated pre-osteoclasts (Day 2) using RT-qPCR. […] (C-E) Osteoclastogenesis in the presence of 10^-6M VIP, SNV or vehicle only (control) performed in 96-well plates; TRAP-positive multinucleated osteoclasts were evaluated after 5 days of differentiation. […]

[8] = test system: rats; test: Study 001–3 acute oral toxicity in rats; assay type: in vivo, rat
Procedure: as §1

[9] = test system: rats; test: Study 001–1 acute subcutaneous toxicity in rats; assay type: in vivo, rat
Procedure: as §1

[10] = daily topical for 13 weeks, all doses
[11] = oral, 7 µg/rat and 7 mg/rat groups
[12] = subcutaneous, 7 mg/rat (1000X, group 4)

Stearyl–HSDAVFTDNYTRLRKQ-Nle-AVKKYLNSILN-NH2 [SNV, Stearyl-norleucine-VIP, lipophilic VIP derivative with N-terminal stearic acid and norleucine in place of methionine at position 17]
Calvaria thickness ([1]; 2 × 10^–8 mol SNV in fibrinogen-thrombin membrane with TiP, 5 weeks, µCT): no significant differences | Lowering of pit resorption volume (PRV) vs Ti ([1]; mouse, in vivo): 60% | Lowering of pit resorption volume as percentage of the total tissue volume (PRV/TV) vs Ti ([1]; mouse, in vivo): 60% | Mortality ([2]; intravenous, 7 µg/rat (1×, group 3)): 7 rats (3 males and 4 females) out of 12 died within 3 h after administration in group 4 (SNV -1000X). One rat died in group 2 within 5–24 h after administration. No mortality occurred in groups 1 and 3 | Necrotic reaction at the site of injection ([2]; intravenous, 7 µg/rat (group 3)): 58% | Necrotic reaction at the site of injection ([2]; intravenous, 7 mg/rat (group 4)): 100% | Reactions: body weight ([2]; intravenous, all groups, initial weight loss recovered during the study): Necrotic reaction was observed at the site of injection in 55% group 2, 58% group 3 and 100% group 4. Most surviving rats displayed normal body weight, and some weight loss observed initially was recovered during the study | Acute intravenous median lethal dose, male rats ([2]; tail vein, S.D. rats, estimated): 7 mg/male rat | Potency relative to VIP in neuroprotection [3]: 1000 fold | Half-life [4]: 15 min | Clinical signs (penile edema, erythema and staining): relation to dose ([5]; daily topical for 13 weeks, 7 µg, 0.7 mg and 3.5 mg/rat): not dose-related | Mortality ([5]; daily topical for 13 weeks, 7 µg/rat (low dose)): None. Only one death took place in a male from the low dose group due to massive abdominal hemorrhage caused by a nephroblastoma | Mortality ([5]; daily topical for 13 weeks, 0.7 mg/rat): None. Only one death took place in a male from the low dose group due to massive abdominal hemorrhage caused by a nephroblastoma | Mortality ([5]; daily topical for 13 weeks, 3.5 mg/rat): None. Only one death took place in a male from the low dose group due to massive abdominal hemorrhage caused by a nephroblastoma | Pathological evaluation of all body organs (macroscopic and microscopic changes) ([5]; daily topical for 13 weeks, all dosages): No drug-related macroscopic or microscopic changes | Hematology and clinical chemistry parameters [5, 10]: No dose related or sex related biologically meaningful treatment effects | Serious adverse effects, conclusion [5, 10]: did not cause any serious adverse effects at any of the doses tested | Treatment-related adverse effects ([5]; daily topical on the sex organs for 13 weeks, 7 µg, 0.7 mg and 3.5 mg/rat, SPF S.D. rats, 10 males + 10 females per group): No related adverse effects were detected throughout the study | Skin sensitization, conclusion ([6]; adjuvant and patch test): The study was designed to assess the degree of skin sensitization resulting from intradermal Freund’s complete adjuvant and patch application of SNV. The study showed that both SNV and vehicle alone have no skin sensitization properties | Mortality ([6]; adjuvant and patch test, daily applications for 3 days): None | Skin reactions ([6]; intradermal Freund's complete adjuvant and patch application, daily applications for 3 days, 3 males + 3 females per group): only slight erythema and edema within the application site | Osteoclast differentiation (osteoclast number and total area) [7]: comparable inhibitory effect | Acute median oral lethal dose ([8]; oral by metal catheter, S.D. rats, 6 males + 6 females per group, 7 mg/rat = maximal practical dose): Under the conditions of this study, the acute median oral lethal dose of SNV was found to be greater the 7 mg/rat, which is the maximal practical dose | Mortality [8, 11]: None | Reactions [8, 11]: None | Acute median lethal subcutaneous dose ([9]; S.D. rats, 6 males + 6 females per group, single injection close to penile or vaginal tissue, 14 observation days, 7 mg/rat = maximal practical dose): Under the conditions of this study, the acute median lethal subcutaneous dose of SNV was found to be greater the 7 mg/rat, which is the maximal practical dose | Mortality ([9]; subcutaneous, 7 µg/rat (1×), 14 observation days): None | Mortality ([9]; subcutaneous, 7 mg/rat (1000X), 14 observation days): None | Reactions: body weight [9, 12]: significant weight loss until 8th day, returning to original weight on day 12–14 | Reactions: diarrhea [9, 12]: Diarrhea in 2 males of group 4 (1000X) 5–24 after injection, lasting for 2 days | Reactions: skin necrosis ([9]; subcutaneous, affected treatment group(s) not specified): Necrosis of abdominal (male only) or penile skin on day 13–14 after injection
